Reference: patent USRE49735E1 (BRISTOL-MYERS SQUIBB COMPANY, priority 2010, dated 2023)
Several values for one entry are separate records, joined by “and”; a condition that tells them apart may be missing. Equal entries are not always repeated.

molecular target: human mGluR5A (Homo sapiens, UniProt P41594); experiment: mGluR5 FLIPR Assay; format: cell-based; details: positive modulator activity; HEK293 (ZF) cells with human mGluR5A and rat GLAST; Ca++ response to ~EC10 glutamate
Sequence (P41594 21-1180 isoform P41594-2): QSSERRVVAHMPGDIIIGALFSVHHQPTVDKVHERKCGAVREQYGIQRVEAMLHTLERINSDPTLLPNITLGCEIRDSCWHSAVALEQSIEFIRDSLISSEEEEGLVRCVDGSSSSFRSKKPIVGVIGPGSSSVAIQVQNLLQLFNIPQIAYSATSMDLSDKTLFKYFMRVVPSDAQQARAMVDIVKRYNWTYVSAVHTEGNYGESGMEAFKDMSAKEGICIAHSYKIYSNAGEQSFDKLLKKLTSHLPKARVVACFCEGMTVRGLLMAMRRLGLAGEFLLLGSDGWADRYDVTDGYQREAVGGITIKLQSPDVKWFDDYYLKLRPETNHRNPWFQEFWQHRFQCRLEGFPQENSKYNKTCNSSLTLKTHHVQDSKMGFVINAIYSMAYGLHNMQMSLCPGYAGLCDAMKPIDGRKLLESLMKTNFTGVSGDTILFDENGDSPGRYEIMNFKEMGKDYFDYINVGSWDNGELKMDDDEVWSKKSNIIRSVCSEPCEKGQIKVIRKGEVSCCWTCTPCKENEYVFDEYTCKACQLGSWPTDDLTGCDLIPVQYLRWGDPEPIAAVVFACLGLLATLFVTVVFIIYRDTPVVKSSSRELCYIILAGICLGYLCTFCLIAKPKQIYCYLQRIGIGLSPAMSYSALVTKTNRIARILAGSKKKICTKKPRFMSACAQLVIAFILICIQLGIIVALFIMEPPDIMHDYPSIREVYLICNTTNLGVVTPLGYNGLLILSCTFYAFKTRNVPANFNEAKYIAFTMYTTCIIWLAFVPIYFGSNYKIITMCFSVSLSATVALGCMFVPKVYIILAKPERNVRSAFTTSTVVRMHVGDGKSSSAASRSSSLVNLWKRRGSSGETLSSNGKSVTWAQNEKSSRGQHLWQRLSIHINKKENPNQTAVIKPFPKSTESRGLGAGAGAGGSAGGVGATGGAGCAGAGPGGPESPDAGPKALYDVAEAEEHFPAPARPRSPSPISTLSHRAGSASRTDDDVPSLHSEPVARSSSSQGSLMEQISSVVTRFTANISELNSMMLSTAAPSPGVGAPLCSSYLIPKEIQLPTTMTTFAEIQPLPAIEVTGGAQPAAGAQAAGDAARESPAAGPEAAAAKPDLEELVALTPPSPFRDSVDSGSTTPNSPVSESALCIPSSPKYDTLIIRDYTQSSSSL

Row | Compound | EC50
1 | COc1cccc([C@H]2OC(=O)N[C@@H]2c2cccc(C#Cc3ccnc(F)c3)c2)c1 [Example 73, (4R,5R)-4-(3-((2-Fluoropyridin-4-yl)ethynyl)phenyl)-5-(3-methoxyphenyl)oxazolidin-2-one] | < 100 nM
2 | COc1cccc([C@H]2OC(=O)N[C@@H]2c2cccc(C#Cc3ccncn3)c2)c1 [Example 74, (4R,5R)-5-(3-Methoxyphenyl)-4-(3-(pyrimidin-4-ylethynyl)phenyl)oxazolidin-2-one] | > 30000 nM
3 | COc1cccc([C@H]2OC(=O)N[C@@H]2c2cccc(C#Cc3cccc(C#N)n3)c2)c1 [Example 75, 6-((3-((4R,5R)-5-(3-Methoxyphenyl)-2-oxooxazolidin-4-yl)phenyl)ethynyl)picolinonitrile] | > 30000 nM
4 | COc1cccc([C@H]2OC(=O)N[C@@H]2c2cccc(C#Cc3cnc4ccccc4c3)c2)c1 [Example 76, (4R,5R)-5-(3-Methoxyphenyl)-4-(3-(quinolin-3-ylethynyl)phenyl)oxazolidin-2-one] | > 30000 nM
5 | COc1cccc([C@H]2OC(=O)N[C@@H]2c2cccc(C#Cc3cccc(O)n3)c2)c1 [Example 77, (4R,5R)-4-(3-((6-Hydroxypyridin-2-yl)ethnyl)phenyl)-5-(3-methoxyphenyl)-oxazolidin-2-one] | > 1000 nM
6 | COc1cccc([C@H]2OC(=O)N[C@@H]2c2cccc(C#Cc3cccnc3OC)c2)c1 [Example 78, (4R,5R)-5-(3-Methoxyphenyl)-4-(3-((2-methoxypyridin-3-yl)ethynyl)phenyl)oxazolidin-2-one] | > 1000 nM
7 | COc1cccc([C@H]2OC(=O)N[C@@H]2c2cccc(C#Cc3cccnc3F)c2)c1 [Example 79, (4R,5R)-4-(3-((2-Fluoropyridin-3-yl)ethynyl)phenyl)-5-(3-methoxyphenyl)oxazolidin-2-one] | < 100 nM
8 | COc1cccc([C@H]2OC(=O)N[C@@H]2c2cccc(C#Cc3cncc(C#N)c3)c2)c1 [Example 80, 5-((3-((4R,5R)-5-(3-Methoxyphenyl)-2-oxooxazolidin-4yl)-phenyl)ethynyl)nicotinonitrile] | < 100 nM
9 | COc1cccc([C@H]2OC(=O)N[C@@H]2c2cccc(C#Cc3cncc(F)c3)c2)c1 [Example 81, (4R,5R)-4-(3-((5-Fluoropyridin-3-yl)ethynyl)phenyl)-5-(3-methoxyphenyl)oxazolidin-2-one] | < 100 nM
10 | COc1cccc([C@H]2OC(=O)N[C@@H]2c2cccc(C#Cc3ccc(Cl)nc3)c2)c1 [Example 82, (4R,5R)-4-(3-((6-Chloropyridin-3-yl)ethynyl)phenyl)-5-(3-methoxyphenyl)oxazolidin-2-one] | 100 to 1000 nM
11 | COc1cccc([C@H]2OC(=O)N[C@@H]2c2cccc(C#Cc3ccc(C)nc3)c2)c1 [Example 83, (4R,5R)-5-(3-Methoxyphenyl)-4-(3-((6-methylpyridin-3-yl)ethynyl)phenyl)oxazolidin-2-one] | 100 to 1000 nM
12 | COc1cccc([C@H]2OC(=O)N[C@@H]2c2cccc(C#Cc3cnccc3Cl)c2)c1 [Example 84, (4R,5R)-4-(3-((4-Chloropyridin-3-yl)ethynyl)phenyl)-5-(3-methoxyphenyl)oxazolidin-2-one] | > 1000 nM
13 | COc1cccc([C@H]2OC(=O)N[C@@H]2c2cccc(C#Cc3cccnc3Cl)c2)c1 [Example 85, (4R,5R)-4-(3-((2-Chloropyridin-3-yl)ethynyl)phenyl)-5-(3-methoxyphenyl)oxazolidin-2-one] | > 1000 nM
14 | COc1cccc([C@H]2OC(=O)N[C@@H]2c2cccc(C#Cc3cncc(C)c3)c2)c1 [Example 86, (4R,5R)-5-(3-Methoxyphenyl)-4-(3-((5-methylpyridin-3-yl)ethynyl)phenyl)oxazolidin-2-one] | < 100 nM
15 | COc1cccc([C@H]2OC(=O)N[C@@H]2c2cccc(C#Cc3cccnc3C)c2)c1 [Example 87, (4R,5R)-5-(3-Methoxyphenyl)-4-(3-((2-methylpyridin-3-yl)ethynyl)phenyl)oxazolidin-2-one] | > 1000 nM
16 | COc1cccc([C@H]2OC(=O)N[C@@H]2c2cccc(C#Cc3cnccc3C)c2)c1 [Example 88, (4R,5R)-5-(3-Methoxyphenyl)-4-(3-((4-methylpyridin-3-yl)ethynyl)phenyl)oxazolidin-2-one] | > 1000 nM
17 | COc1cccc([C@H]2OC(=O)N[C@@H]2c2cccc(C#Cc3ccnc(OC)c3)c2)c1 [Example 89, (4R,5R)-5-(3-Methoxyphenyl)-4-(3-((2-methoxypyridin-4-yl)ethnyl)phenyl)oxazolidin-2-one] | > 1000 nM
18 | COc1cccc([C@H]2OC(=O)N[C@@H]2c2cccc(C#Cc3ccccc3C#N)c2)c1 [Example 90, 2-((3-((4R,5R)-5-(3-Methoxyphenyl)-2-oxooxazolidin-4-yl)phenyl)ethynyl)benzonitrile] | > 1000 nM
19 | COc1cccc([C@H]2OC(=O)N[C@@H]2c2cccc(C#Cc3ccccc3OC)c2)c1 [Example 91, (4R,5R)-5-(3-Methoxyphenyl)-4-(3-((2-methoxyphenyl)ethynyl)phenyl)oxazolidin-2-one] | 100 to 1000 nM
20 | COc1cccc([C@H]2OC(=O)N[C@@H]2c2cccc(C#Cc3cnccc3OC)c2)c1 [Example 92, (4R,5R)-5-(3-Methoxyphenyl)-4-(3-((4-methoxypyridin-3-yl)ethynyl)phenyl)oxazolidin-2-one] | > 1000 nM
21 | CNc1ncc(C#Cc2cccc([C@H]3NC(=O)O[C@@H]3c3cccc(OC)c3)c2)cn1 [Example 93] | > 1000 nM
22 | CCOc1ncc(C#Cc2cccc([C@H]3NC(=O)O[C@@H]3c3cccc(OC)c3)c2)cn1 [Example 94, (4R,5R)-4-(3-((2-Ethoxypyrimidin-5-yl)ethynyl)phenyl)-5-(3-methoxyphenyl)oxazolidin-2-one] | > 1000 nM
23 | O=C1N[C@@H](c2cccc(C#Cc3ccccc3)c2)[C@@H](c2ccccc2)O1 [Example 97, (4S,5R)-5-phenyl-4-(3-(phenylethynyl)phenyl)oxazolidin-2-one] | > 1000 nM
24 | Cc1ccc([C@H]2OC(=O)N[C@@H]2c2cccc(C#Cc3ccccc3)c2)cc1C [Example 101, (4R,5R)-5-(3,4-dimethylphenyl)-4-(3-(phenylethynyl)phenyl)oxazolidin-2-one] | < 100 nM
25 | Cc1ccc([C@H]2OC(=O)N[C@@H]2c2cccc(C#Cc3ccccc3)c2)cc1 [Example 107] | < 100 nM

Other lines, results leading:

Row | EC50 | Compound
26 | > 1000 nM | Cc1ccc([C@@H]2OC(=O)N[C@H]2c2cccc(C#Cc3ccccc3)c2)cc1 [Example 108]
27 | < 100 nM | O=C1N[C@H](c2cccc(C#Cc3ccccc3)c2)[C@@H](c2ccccc2F)O1 [Example 109, (4R,5R)-5-(2-fluorophenyl)-4-(3-(phenylethynyl)phenyl)oxazolidin-2-one]
28 | > 1000 nM | O=C1N[C@@H](c2cccc(C#Cc3ccccc3)c2)[C@H](c2ccccc2F)O1 [Example 110, (4S,5S)-5-(2-fluorophenyl)-4-(3-(phenylethynyl)phenyl)oxazolidin-2-one]
29 | 100 to 1000 nM | O=C1NC(c2cccc(C#Cc3ccccc3)c2)C(c2cccc(F)c2)O1 (centres unmarked) [Example 113]
30 | > 1000 nM | O=C1N[C@@H](c2cccc(C#Cc3ccccc3)c2)[C@H](c2ccc(F)cc2)O1 [Example 115, (4S,5S)-5-(4-fluorophenyl)-4-(3-(phenylethynyl)phenyl)oxazolidin-2-one]
31 | < 100 nM and 4.7 nM | O=C1N[C@H](c2cccc(C#Cc3ccccc3)c2)[C@@H](c2cccnc2)O1 [Example 117, (4R,5R)-4-(3-(phenylethynyl)phenyl)-5-(pyridin-3-yl)oxazolidin-2-one]
32 | > 1000 nM | O=C1N[C@@H](c2cccc(C#Cc3ccccc3)c2)[C@H](c2cccnc2)O1 [Example 118, (4S,5S)-4-(3-(phenylethynyl)phenyl)-5-(pyridin-3-yl)oxazolidin-2-one]
33 | > 1000 nM | COc1cccc([C@H]2OC(=O)N[C@@H]2c2cccc(C#Cc3ccc(C(F)(F)F)cc3)c2)c1 [Example 119, (4R,5R)-5-(3-methoxyphenyl)-4-(3-((4-(trifluoromethyl)phenyl)ethynyl)phenyl)oxazolidin-2-one]
34 | < 100 nM | COc1cccc([C@H]2OC(=O)N[C@@H]2c2cccc(C#Cc3ccccc3F)c2)c1 [Example 121, (4R,5R)-4-(3-((2-fluorophenyl)ethynyl)phenyl)-5-(3-methoxyphenyl)oxazolidin-2-one]
35 | 100 to 1000 nM | COc1cccc([C@H]2OC(=O)N[C@@H]2c2cccc(C#Cc3cc(F)cc(F)c3)c2)c1 [Example 123, (4R,5R)-4-(3-((3,5-difluorophenyl)ethynyl)phenyl)-5-(3-methoxyphenyl)oxazolidin-2-one]
36 | > 1000 nM | COc1cccc([C@@H]2OC(=O)N[C@H]2c2cccc(C#Cc3cc(F)cc(F)c3)c2)c1 [Example 124, (4S,5S)-4-(3-((3,5-difluorophenyl)ethynyl)phenyl)-5-(3-methoxyphenyl)oxazolidin-2-one]
37 | > 30000 nM | COc1cccc([C@H]2OC(=O)N[C@@H]2c2cccc(C#Cc3ccccc3C(F)(F)F)c2)c1 [Example 125, (4R,5R)-5-(3-methoxyphenyl)-4-(3-((2-(trifluoromethyl)phenyl)ethynyl)phenyl)oxazolidin-2-one]
38 | > 30000 nM | COc1cccc([C@@H]2OC(=O)N[C@H]2c2cccc(C#Cc3ccccc3C(F)(F)F)c2)c1 [Example 126, (4S,5S)-5-(3-methoxyphenyl)-4-(3-((2-(trifluoromethyl)phenyl)ethynyl)phenyl)oxazolidin-2-one]
39 | 100 to 1000 nM | COc1cccc([C@H]2OC(=O)N[C@@H]2c2cccc(C#Cc3ccc(F)cc3F)c2)c1 [Example 127, (4R,5R)-4-(3-((2,4-difluorophenyl)ethynyl)phenyl)-5-(3-methoxyphenyl)oxazolidin-2-one]
40 | > 1000 nM | COc1cccc([C@@H]2OC(=O)N[C@H]2c2cccc(C#Cc3ccc(F)cc3F)c2)c1 [Example 128, (4S,5S)-4-(3-((2,4-difluorophenyl)ethynyl)phenyl)-5-(3-methoxyphenyl)oxazolidin-2-one]
41 | > 1000 nM | COc1cccc([C@H]2OC(=O)N[C@@H]2c2cccc(C#Cc3cccc(C(F)(F)F)c3)c2)c1 [Example 129, (4R,5R)-5-(3-methoxyphenyl)-4-(3-((3-(trifluoromethyl)phenyl)ethynyl)phenyl)oxazolidin-2-one]
